Measured values: patent US4284631A, “7-Substituted cephem compounds and pharmaceutical antibacterial compositions containing them” (Fujisawa Pharmaceutical Co., Ltd., priority 1978, dated 1981)
In brackets after ≈: the same amount, converted by molar mass. Structures can show the parent of a compound that is named as a salt.

Experiments:
Assay in all cases: In vitro antibacterial activity, two-fold agar-plate dilution method
Assay type in all cases: cell-based
[1] = test system: Escherichia coli NIHJ JC-2; details: NIHJJC2, HI-agar, 37° C., 20 hours, read-out: MIC (minimal inhibitory concentration)
Description: (§1) In vitro antibacterial activity was determined by the two-fold agar-plate dilution method as described below.
(§2) One loopful of the 100-fold dilution of an overnight culture of each test strain in Trypticasesoy broth was streaked on heart infusion agar (HI-agar) containing graded concentrations of the test compound and incubated at 37° C. for 20 hours. The minimal inhibitory concentration (MIC) was expressed in μg/ml.

Klebsiella pneumoniae 20 = details: HI-agar, 37° C., 20 hours, read-out: MIC (minimal inhibitory concentration)
Description: as §1, §2

Proteus mirabilis 18 = details: HI-agar, 37° C., 20 hours, read-out: MIC (minimal inhibitory concentration)
Description: as §1, §2

[2] = test system: Proteus vulgaris IAM-1025; details: IAM1025, HI-agar, 37° C., 20 hours, read-out: MIC (minimal inhibitory concentration)
Description: as §1, §2

[3] = test system: Pseudomonus aeruginosa NCTC-10490; details: HI-agar, 37° C., 20 hours, read-out: MIC (minimal inhibitory concentration)
Description: as §1, §2

[4] = test system: Staphylococcus aureus 209 P JC-1; details: 209PJC1, HI-agar, 37° C., 20 hours, read-out: MIC (minimal inhibitory concentration)
Description: as §1, §2

SMILES	MIC [1] [µg/mL]	MIC (Klebsiella pneumoniae 20) [µg/mL]	MIC (Proteus mirabilis 18) [µg/mL]	MIC [2] [µg/mL]	MIC [3] [µg/mL]	MIC [4] [µg/mL]
Nc1nc(/C(=N/OCCO)C(=O)NC2C(=O)N3C(C(=O)O)=CCSC23)cs1 (stereo not drawn) [Compound 2, 7-[2-(2-aminothiazol-4-yl)-2-(2-hydroxyethoxyimino)acetamido]-3-cephem-4-carboxylic acid (syn isomer)]	0.05 (≈ 0.121 µM)	0.025 (≈ 0.0605 µM)	0.025 (≈ 0.0605 µM)	0.025 (≈ 0.0605 µM)	3.13 (≈ 7.57 µM)	12.5 (≈ 30.2 µM)
CCOCCO/N=C(\C(=O)NC1C(=O)N2C(C(=O)O)=CCSC12)c1csc(N)n1 (stereo not drawn) [Compound 3, 7-[2-(2-aminothiazol-4-yl)-2-(2-ethoxyethoxyimino)acetamido]-3-cephem-4-carboxylic acid (syn isomer)]	0.2 (≈ 0.453 µM)	0.025 (≈ 0.0566 µM)	0.2 (≈ 0.453 µM)	0.025 (≈ 0.0566 µM)	1.56 (≈ 3.53 µM)	3.13 (≈ 7.09 µM)
NCc1ccc(CO/N=C(\C(=O)NC2C(=O)N3C(C(=O)O)=CCSC23)c2csc(N)n2)cc1 (stereo not drawn) [Compound 5, 7-[2-(2-aminothiazol-4-yl)-2-(4-aminomethylbenzyloxyimino)acetamido]-3-cephem-4-carboxylic acid dihydrochloride (syn isomer)]	0.1	0.05	0.1	0.05	3.13	0.78
Nc1nc(/C(=N/OCc2ccon2)C(=O)NC2C(=O)N3C(C(=O)O)=CCSC23)cs1 (stereo not drawn) [Compound 6, 7-[2-(2-aminothiazol-4-yl)-2-(3-isoxazolylmethoxyimino)acetamido]-3-cephem-4-carboxylic acid (syn isomer)]	0.1 (≈ 0.222 µM)	0.025 (≈ 0.0555 µM)	0.1 (≈ 0.222 µM)	0.025 (≈ 0.0555 µM)	1.56 (≈ 3.46 µM)	3.13 (≈ 6.95 µM)

Second part, the compound after the results:

MIC [1] [µg/mL]	MIC (Klebsiella pneumoniae 20) [µg/mL]	MIC (Proteus mirabilis 18) [µg/mL]	MIC [2] [µg/mL]	MIC [3] [µg/mL]	MIC [4] [µg/mL]	SMILES
0.05 (≈ 0.122 µM)	0.025 (≈ 0.0612 µM)	0.025 (≈ 0.0612 µM)	0.025 (≈ 0.0612 µM)	1.56 (≈ 3.82 µM)	6.25 (≈ 15.3 µM)	N#CCO/N=C(\C(=O)NC1C(=O)N2C(C(=O)O)=CCSC12)c1csc(N)n1 (stereo not drawn) [Compound 1, 7-[2-(2-aminothiazol-4-yl)-2-cyanomethoxyiminoacetamido]-3-cephem-4-carboxylic acid (syn isomer)]
0.05 (≈ 0.116 µM)	0.025 (≈ 0.0582 µM)	0.05 (≈ 0.116 µM)	0.025 (≈ 0.0582 µM)	1.56 (≈ 3.63 µM)	1.56 (≈ 3.63 µM)	CSCO/N=C(\C(=O)NC1C(=O)N2C(C(=O)O)=CCSC12)c1csc(N)n1 (stereo not drawn) [Compound 4, 7-[2-(2-aminothiazol-4-yl)-2-(methylthiomethoxyimino)acetamido]-3-cephem-4-carboxylic acid (syn isomer)]
